# Measurements: ChEMBL document CHEMBL4673220, “Synthesis of new coumarin tethered isoxazolines as potential anticancer agents” (Bioorg Med Chem Lett, 2018)
# The source made the active and inactive calls. The rule behind the calls is not given here.
# Legend:
# UACC-903 [1] = assay: Antiproliferative activity against human UACC-903 cells assessed as reduction in cell viability at 0.5 to 200 uM measured after 72 hrs by MTS assay; format: functional, cell-based; conditions: dose 0.5-200 µM
# [2] = Cytotoxicity against human FF2441 cells assessed as reduction in cell viability at 0.2 to 100 uM measured after 72 hrs by MTS assay; format: cell-based; conditions: ff2441, 72 h, dose 0.2-100 µM
# UACC-903 [3] = assay: Antiproliferative activity against human UACC-903 cells assessed as reduction in cell viability at 0.5 to 200 uM by MTS assay; format: functional, cell-based; conditions: dose 0.5-200 µM, TDE = time-dependent effect
# UACC-903 [4] = assay: Antiproliferative activity against human UACC-903 cells assessed as reduction in cell viability measured after 72 hrs by MTS assay; format: functional, cell-based; conditions: for IC50: UACC-903, 72 h
# Chorioallantoic membrane [5] = assay: Antiangiogenic activity in chicken fertilized egg chorioallantoic membrane assessed as inhibition of secretion of VEGF-like factors; format: functional; conditions: Gallus gallus, Embryo
# Chorioallantoic membrane [6] = assay: Antiangiogenic activity in chicken fertilized egg chorioallantoic membrane assessed as inhibition of expression of VEGF-like factors; format: functional; conditions: Gallus gallus, Embryo
# Chorioallantoic membrane [7] = assay: Antiangiogenic activity in chicken fertilized egg chorioallantoic membrane assessed as inhibition of VEGF165-induced vascularization incubated for 2 days by digital camera photography analysis; format: functional; conditions: Gallus gallus, Embryo, time 2.0 day
# Ehrlich [8] = assay: Antitumor activity against mouse EAT cells implanted in ip dosed Swiss albino mouse assessed as suppression of peritoneal angiogenesis at […] administered on day 7, 9 and 11 post implantation and measured on day 12 by Hematoxylin and eosin staining based assay; format: functional, organism-based; conditions: time 3.0 day
# Ehrlich [9] = assay: Antitumor activity against mouse EAT cells implanted in ip dosed Swiss albino mouse assessed as induction of apoptosis causing apoptotic body formation administered on day 7, 9 and 11 post implantation and measured on day 12 by Giemsa staining based light microscopy; format: functional, organism-based; conditions: dose 100.0 mg/kg, time 3.0 day
# Ehrlich [10] = assay: Antitumor activity against mouse EAT cells implanted in ip dosed Swiss albino mouse assessed as induction of apoptosis causing membrane blebbing administered on day 7, 9 and 11 post implantation and measured on day 12 by Giemsa staining based light microscopy; format: functional, organism-based; conditions: dose 100.0 mg/kg, time 3.0 day
# Ehrlich [11] = assay: Antitumor activity against mouse EAT cells implanted in ip dosed Swiss albino mouse assessed as induction of apoptosis causing shrinkage of cells administered on day 7, 9 and 11 post implantation and measured on day 12 by Giemsa staining based light microscopy; format: functional, organism-based; conditions: dose 100.0 mg/kg, time 3.0 day
# Ehrlich [12] = assay: Antitumor activity against mouse EAT cells implanted in ip dosed Swiss albino mouse assessed as induction of apoptosis causing plasma membrane degradation administered on day 7, 9 and 11 post implantation and measured on day 12 by Giemsa staining based light microscopy; format: functional, organism-based; conditions: dose 100.0 mg/kg, time 3.0 day
# Ehrlich [13] = assay: Antitumor activity against mouse EAT cells implanted in ip dosed Swiss albino mouse assessed as increase in mouse survival at 100 mg/kg, ip administered on day 7, 9 and 11 post implantation and measured after 35 days relative to control; format: functional; conditions: time 35 day
# Ehrlich [14] = assay: Antitumor activity against mouse EAT cells implanted in ip dosed Swiss albino mouse assessed as decrease in ascitic cell viability administered on day 7, 9 and 11 post implantation and measured on day 12 by tryphan blue assay; format: functional, organism-based; conditions: dose 100.0 mg/kg, time 3.0 day
# Ehrlich [15] = assay: Antitumor activity against mouse EAT cells implanted in ip dosed Swiss albino mouse assessed as decrease in ascitic fluid administered on day 7, 9 and 11 post implantation and measured on day 12; format: functional, organism-based; conditions: dose 100.0 mg/kg, time 3.0 day
# Ehrlich [16] = assay: Antitumor activity against mouse EAT cells implanted in ip dosed Swiss albino mouse assessed as tumor regression administered on day 7, 9 and 11 post implantation and measured on day 12; format: functional, organism-based; conditions: time 3.0 day
# [17] = Toxicity in Swiss albino mouse implanted with mouse EAT cells assessed as decrease in body weight at 100 mg/kg, ip administered on day 7, 9 and 11 post implantation and measured on day 12; format: organism-based; conditions: in vivo, 72 h, time 3 day
# Ehrlich [18] = assay: Antitumor activity against mouse EAT cells implanted in Swiss albino mouse assessed as tumor suppression at 100 mg/kg, ip administered on day 7, 9 and 11 post implantation and measured on day 12 relative to control; format: functional; conditions: 72 h, time 3 day
SMILES,Activity (UACC-903 [1]),Activity [2],Activity (UACC-903 [3]),Activity (UACC-903 [4]),IC50 (UACC-903 [4]) [µM],also measured
Cc1cc(=O)oc2cc(OCC3CC(c4ccc(Cl)cc4)=NO3)ccc12 (configuration not stated),inactive,Non-Toxic,–,–,–,–
COc1cc(C2=NOC(COc3ccc4c(C)cc(=O)oc4c3)C2)cc(OC)c1OC (configuration not stated),inactive,Non-Toxic,–,–,–,–
COc1cccc(C2=NOC(COc3ccc4c(C)cc(=O)oc4c3)C2)c1 (configuration not stated),inactive,Non-Toxic,–,–,–,–
Cc1cc(=O)oc2cc(OCC3CC(c4c(F)cccc4Cl)=NO3)ccc12 (configuration not stated),–,–,Tde,Dose-dependent effect,4.5,–
COc1ccc(C2=NOC(COc3ccc4c(C)cc(=O)oc4c3)C2)cc1 (configuration not stated),–,–,Tde,Dose-dependent effect,8.8,–
Cc1cc(=O)oc2cc(OCC3CC(c4ccc(F)cc4)=NO3)ccc12 (configuration not stated),inactive,Non-Toxic,–,–,–,–
Cc1cc(=O)oc2cc(OCC3CC(c4ccc5ccccc5c4)=NO3)ccc12 (configuration not stated),inactive,Non-Toxic,–,–,–,–
Cc1cc(=O)oc2cc(OCC3CC(c4ccc(C(F)(F)F)cc4)=NO3)ccc12 (configuration not stated),inactive,Non-Toxic,–,–,–,–
Cc1cc(=O)oc2cc(OCC3CC(c4cccc(F)c4)=NO3)ccc12 (configuration not stated),inactive,Non-Toxic,–,–,–,–
Cc1cc(=O)oc2cc(OCC3CC(c4ccc(Br)cc4)=NO3)ccc12 (configuration not stated),inactive,Non-Toxic,–,–,–,–
Cc1cc(=O)oc2cc(OCC3CC(c4ccccc4Cl)=NO3)ccc12 (configuration not stated),–,–,Tde,Dose-dependent effect,9.2,–
COc1ccc(C2=NOC(COc3ccc4c(C)cc(=O)oc4c3)C2)cc1OC (configuration not stated),–,–,Tde,Dose-dependent effect,10.5,Activity (Chorioallantoic membrane [5]): Active; Activity (Chorioallantoic membrane [6]): Active; Activity (Chorioallantoic membrane [7]): Active; Activity (Ehrlich [8]): Active; Activity (Ehrlich [9]): Active; Activity (Ehrlich [10]): Active; Activity (Ehrlich [11]): Active; Activity (Ehrlich [12]): Active; fold change (FC) (Ehrlich [13]): 2; Activity (Ehrlich [14]): Active; Activity (Ehrlich [15]): Active; Activity (Ehrlich [16]): Dose-dependent effect; Activity [17]: Toxic; inhibition in vivo at 100 mg/kg (Ehrlich [18]): 85%
